Measured values taken from ChEMBL document CHEMBL1201862, “PubChem BioAssay data set” (2004).
Active and inactive are the calls of the source.

Columns and labels:
[1] = Luminescence-based dose response cell-based high throughput screening assay for cytotoxic compounds using the IEC-6 intestinal epithelial cell line. [Related pubchem assays: 1858 (Summary AID.), 1825 (Counterscreen.), 1907 (Confirmation screen.)]; format: functional
[2] = HEp-2 cell cytotoxicity, dose response, cytotoxicity control for RSV inhibitor project, HTS (AID 2410); format: functional; details: human respiratory syncytial virus
[3] = inhibitors of intracellular T. cruzi replication, confirmation, NIH3T3 host cells, beta-gal luminescence (AID 2044); format: functional, cell-based;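 also: intracellular parasites grown in NIH/3T3 mouse fibroblasts as host cells; luminescent beta-galactosidase reporter signal from transgenic T. cruzi replicating inside host cells; inhibitors lower the luminescence signal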
[4] = target: T1, Rac GTPase-activating protein 1 (Homo sapiens, UniProt Q9H0H5); experiment: MgcRacGAP GTPase-activating activity inhibitors, confirmation, biochemical, ADP Hunter fluorescence, primary and confirmatory (AID 624330); format: functional
T1 sequence (Q9H0H5 whole entry): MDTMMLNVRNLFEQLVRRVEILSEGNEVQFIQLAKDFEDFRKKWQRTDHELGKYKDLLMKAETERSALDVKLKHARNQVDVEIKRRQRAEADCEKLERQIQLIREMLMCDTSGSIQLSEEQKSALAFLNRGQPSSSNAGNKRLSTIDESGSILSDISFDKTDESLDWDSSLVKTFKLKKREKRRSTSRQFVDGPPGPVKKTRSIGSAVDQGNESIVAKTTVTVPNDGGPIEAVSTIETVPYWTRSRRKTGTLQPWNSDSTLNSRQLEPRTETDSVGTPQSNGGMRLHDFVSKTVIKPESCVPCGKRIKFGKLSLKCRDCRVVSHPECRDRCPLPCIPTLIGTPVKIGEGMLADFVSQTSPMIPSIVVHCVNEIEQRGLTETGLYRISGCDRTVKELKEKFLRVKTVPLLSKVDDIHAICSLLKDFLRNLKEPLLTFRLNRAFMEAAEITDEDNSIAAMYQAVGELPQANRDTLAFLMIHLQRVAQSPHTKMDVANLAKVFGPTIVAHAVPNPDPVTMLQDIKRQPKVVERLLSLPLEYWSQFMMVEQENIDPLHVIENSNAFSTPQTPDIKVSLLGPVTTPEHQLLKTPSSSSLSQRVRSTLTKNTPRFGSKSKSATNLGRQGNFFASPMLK

[5] = cytotoxicity toward NIH3T3 fibroblasts, dose response, counter-screen, cell-based, ATP luminescence, mouse fibroblasts (AID 2010); format: functional;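 also: cells exposed to compound for about 90 hours before reading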
[6] = target: T2, Kappa-type opioid receptor (Homo sapiens, UniProt P41145); format: functional
T2 sequence (P41145 whole entry): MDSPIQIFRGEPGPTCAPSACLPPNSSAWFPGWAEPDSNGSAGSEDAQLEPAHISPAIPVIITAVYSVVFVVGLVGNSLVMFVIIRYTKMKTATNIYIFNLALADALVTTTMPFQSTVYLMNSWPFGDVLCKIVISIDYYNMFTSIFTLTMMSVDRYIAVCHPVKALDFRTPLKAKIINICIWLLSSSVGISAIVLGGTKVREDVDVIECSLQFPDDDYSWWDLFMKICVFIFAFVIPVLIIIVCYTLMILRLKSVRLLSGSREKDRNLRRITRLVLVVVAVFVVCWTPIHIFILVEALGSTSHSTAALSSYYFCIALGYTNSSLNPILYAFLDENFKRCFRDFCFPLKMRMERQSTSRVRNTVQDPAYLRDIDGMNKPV

Vero [7] = experiment: host cell cytotoxicity of antiviral hits, dose response, cytotoxicity control for West Nile virus antiviral project, secondary assay (AID 1650); format: functional; details: Chlorocebus sabaeus
[8] = Luminescence Cell-Based Dose Confirmation HTS to Identify Inhibitors of Polyadenylation.; format: functional
[9] = target: T3, Delta-type opioid receptor (Homo sapiens, UniProt P41143); experiment: HTS Image-Based Screen for Antagonists of the DOR Receptor. [Related pubchem assays (depositor defined):AID1777, AID1785, AID1786, AID2133]; format: functional
T3 sequence (P41143 whole entry): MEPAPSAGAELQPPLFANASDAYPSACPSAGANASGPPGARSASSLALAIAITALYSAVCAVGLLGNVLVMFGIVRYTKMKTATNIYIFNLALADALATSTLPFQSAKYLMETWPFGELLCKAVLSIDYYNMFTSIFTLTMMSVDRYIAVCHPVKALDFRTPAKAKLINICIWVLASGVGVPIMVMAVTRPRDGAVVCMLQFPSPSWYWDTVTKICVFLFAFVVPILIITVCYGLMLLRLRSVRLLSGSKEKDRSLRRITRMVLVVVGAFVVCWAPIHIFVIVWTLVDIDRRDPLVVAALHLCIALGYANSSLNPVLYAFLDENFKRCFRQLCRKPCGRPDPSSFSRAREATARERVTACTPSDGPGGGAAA

[10] = target: T3, Delta-type opioid receptor; experiment: HTS Image-Based Screen for Agonists of the DOR Receptor. [Related pubchem assays (depositor defined):AID1777, AID1786, AID2133]; format: functional
Vero [11] = experiment: cells; format: functional; details: Chlorocebus sabaeus
[12] = A Cell Based Secondary Assay To Explore Cytotoxicity of Compounds that Sensitize Mycobacterium Tuberculosis to Beta-Lactam Antibiotics.; format: functional
Streptokinase A = target: T4, Streptokinase A (Streptococcus pyogenes serotype M1, UniProt P10520); experiment: S. pyogenes streptokinase expression inhibitors, potency, dose response, plasminogen activation absorbance, OD405 (AID 1914); format: functional, Streptococcus pyogenes M1 GAS;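 also: secreted streptokinase activity via plasminogen activation per viability signal from cell pellet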
T4 sequence (P10520 whole entry): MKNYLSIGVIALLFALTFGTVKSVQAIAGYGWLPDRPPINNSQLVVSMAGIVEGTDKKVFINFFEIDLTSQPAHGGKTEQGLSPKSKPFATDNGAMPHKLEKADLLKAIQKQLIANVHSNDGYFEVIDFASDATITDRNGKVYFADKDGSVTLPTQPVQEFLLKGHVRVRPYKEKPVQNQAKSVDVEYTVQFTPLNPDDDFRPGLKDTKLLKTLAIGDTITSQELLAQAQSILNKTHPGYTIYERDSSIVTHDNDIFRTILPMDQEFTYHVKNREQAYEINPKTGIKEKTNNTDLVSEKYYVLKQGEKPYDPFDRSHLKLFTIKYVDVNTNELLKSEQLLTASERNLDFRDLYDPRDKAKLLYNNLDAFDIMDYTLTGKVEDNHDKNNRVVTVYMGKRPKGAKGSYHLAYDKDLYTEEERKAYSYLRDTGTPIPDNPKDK

Beta-galactosidase [13] = target: T5, Beta-galactosidase (Escherichia coli, UniProt Q8VNN2); experiment: PubChem AID 485352; format: functional
T5 sequence (Q8VNN2 whole entry): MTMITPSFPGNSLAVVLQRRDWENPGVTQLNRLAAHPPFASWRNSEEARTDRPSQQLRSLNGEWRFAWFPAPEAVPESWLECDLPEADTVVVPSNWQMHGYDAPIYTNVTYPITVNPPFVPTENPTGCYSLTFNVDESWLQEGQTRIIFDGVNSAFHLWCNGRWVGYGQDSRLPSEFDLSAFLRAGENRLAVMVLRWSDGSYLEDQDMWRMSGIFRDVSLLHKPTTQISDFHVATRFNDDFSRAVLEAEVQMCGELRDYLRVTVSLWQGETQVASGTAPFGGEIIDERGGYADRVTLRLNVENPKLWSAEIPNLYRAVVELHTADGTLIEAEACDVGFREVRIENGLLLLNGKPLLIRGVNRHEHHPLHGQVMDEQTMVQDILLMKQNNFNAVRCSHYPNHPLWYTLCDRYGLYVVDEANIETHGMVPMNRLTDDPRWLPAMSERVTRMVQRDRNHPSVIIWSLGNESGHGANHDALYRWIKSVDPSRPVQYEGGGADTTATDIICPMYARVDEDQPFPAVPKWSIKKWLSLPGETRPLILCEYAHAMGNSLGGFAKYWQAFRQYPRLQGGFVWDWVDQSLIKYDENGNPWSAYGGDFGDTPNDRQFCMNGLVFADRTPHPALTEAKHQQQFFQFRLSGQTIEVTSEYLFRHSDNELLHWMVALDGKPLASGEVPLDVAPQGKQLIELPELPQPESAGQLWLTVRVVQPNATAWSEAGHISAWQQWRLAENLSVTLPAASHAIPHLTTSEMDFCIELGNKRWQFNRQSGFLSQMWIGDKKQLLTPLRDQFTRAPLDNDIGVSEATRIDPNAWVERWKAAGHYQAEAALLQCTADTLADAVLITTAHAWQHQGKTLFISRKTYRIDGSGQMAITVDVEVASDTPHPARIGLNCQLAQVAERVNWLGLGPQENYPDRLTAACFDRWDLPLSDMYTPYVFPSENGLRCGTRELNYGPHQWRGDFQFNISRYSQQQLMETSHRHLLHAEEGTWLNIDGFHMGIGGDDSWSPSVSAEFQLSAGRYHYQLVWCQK

Streptococcus = experiment: Group A Streptococcus viability loss, dose response, counter-screen for streptokinase expression inhibitor project, luminescence, BacTiterGlo (AID 1915); format: functional, organism-based;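 also: potency for reduction of bacterial viability or growth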
[14] = target: T6, Type-1 angiotensin II receptor (Homo sapiens, UniProt P30556); experiment: AT1 receptor antagonists, dose response, selectivity assay for APJ receptor antagonist project, cell-based, uHTS hits (AID 463214); format: functional;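 also: antagonist potency against angiotensin II stimulated AT1 response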
T6 sequence (P30556 whole entry): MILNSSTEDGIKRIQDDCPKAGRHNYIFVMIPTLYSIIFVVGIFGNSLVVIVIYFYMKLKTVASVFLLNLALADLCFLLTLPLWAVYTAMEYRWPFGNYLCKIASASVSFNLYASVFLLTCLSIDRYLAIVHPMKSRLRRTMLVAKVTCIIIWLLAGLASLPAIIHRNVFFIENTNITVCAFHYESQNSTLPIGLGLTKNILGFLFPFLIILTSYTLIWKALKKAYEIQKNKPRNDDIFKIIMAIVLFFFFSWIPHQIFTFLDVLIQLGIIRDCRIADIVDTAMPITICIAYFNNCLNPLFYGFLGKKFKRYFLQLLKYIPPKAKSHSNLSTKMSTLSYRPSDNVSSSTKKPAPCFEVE

Vero [15] = experiment: cells; format: functional, cell-based; details: Chlorocebus sabaeus
Mu-type opioid receptor = Mu-type opioid receptor (Homo sapiens, UniProt P35372); experiment: HTS Image-Based Screen for Agonists of the MOR Receptor. [Related pubchem assays (depositor defined):AID1777, AID1785, AID1786, AID2133]; format: functional;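 also: imaging of beta-arrestin GFP recruitment into spots after receptor activation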
Mu-type opioid receptor, sequence (P35372 whole entry): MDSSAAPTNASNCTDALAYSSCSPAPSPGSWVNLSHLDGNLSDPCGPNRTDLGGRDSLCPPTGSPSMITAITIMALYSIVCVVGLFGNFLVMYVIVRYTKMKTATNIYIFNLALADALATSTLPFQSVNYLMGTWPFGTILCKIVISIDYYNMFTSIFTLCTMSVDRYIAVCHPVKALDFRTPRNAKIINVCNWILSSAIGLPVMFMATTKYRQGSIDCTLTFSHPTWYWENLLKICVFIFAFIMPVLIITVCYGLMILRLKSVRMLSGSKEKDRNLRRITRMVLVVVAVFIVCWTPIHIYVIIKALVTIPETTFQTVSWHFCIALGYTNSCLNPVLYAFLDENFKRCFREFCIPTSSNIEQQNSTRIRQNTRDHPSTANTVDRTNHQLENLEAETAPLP

[16] = target: T2, Kappa-type opioid receptor; format: functional; remark: listed apart in the source
Beta-galactosidase [17] = target: T5, Beta-galactosidase; format: functional
[18] = system: Streptococcus sp. 'group A'; experiment: growth inhibition of control SK(-) GAS strain, dose response, counter-screen for streptokinase expression inhibitor project, luminescence, kanamycin, BacTiterGlo, confirmation (AID 1900); format: functional, organism-based
[19] = target: T7, Oxysterols receptor LXR-beta (Homo sapiens, UniProt P55055); format: functional, cell-based;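 also: agonist activity at LXR measured by a cell-based luminescence readout across a dose range, run as a counterscreen for daf-12 agonists; HEK293 cells with Gal4-LXR fusion and GAL4-driven luciferase reporter; potency for activation of Gal4-LXR reporter so compounds are agonists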
T7 sequence (P55055 whole entry): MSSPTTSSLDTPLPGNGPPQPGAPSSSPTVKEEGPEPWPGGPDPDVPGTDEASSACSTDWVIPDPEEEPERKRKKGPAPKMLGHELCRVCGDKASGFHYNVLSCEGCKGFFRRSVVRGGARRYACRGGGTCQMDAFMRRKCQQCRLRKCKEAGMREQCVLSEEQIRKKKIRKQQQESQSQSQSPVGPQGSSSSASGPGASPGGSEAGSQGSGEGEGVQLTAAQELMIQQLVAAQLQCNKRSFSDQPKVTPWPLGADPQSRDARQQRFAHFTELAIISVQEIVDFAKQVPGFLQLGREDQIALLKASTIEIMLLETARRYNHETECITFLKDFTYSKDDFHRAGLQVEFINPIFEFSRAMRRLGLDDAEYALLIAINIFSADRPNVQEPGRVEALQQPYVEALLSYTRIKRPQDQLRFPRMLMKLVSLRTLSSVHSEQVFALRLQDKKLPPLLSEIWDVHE

[20] = target: Epstein-Barr nuclear antigen 1 (Epstein-Barr virus (strain B95-8) (HHV-4) (Human herpesvirus 4), UniProt P03211); experiment: EBNA-1 inhibitors, dose response, biochemical, fluorescence polarization, 1536-well (AID 2381); set-up: species or system human gammaherpesvirus 4;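 also: fluorescence polarization of a Cy5 DNA probe bound by EBNA-1 protein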
Epstein-Barr nuclear antigen 1, sequence (P03211 whole entry): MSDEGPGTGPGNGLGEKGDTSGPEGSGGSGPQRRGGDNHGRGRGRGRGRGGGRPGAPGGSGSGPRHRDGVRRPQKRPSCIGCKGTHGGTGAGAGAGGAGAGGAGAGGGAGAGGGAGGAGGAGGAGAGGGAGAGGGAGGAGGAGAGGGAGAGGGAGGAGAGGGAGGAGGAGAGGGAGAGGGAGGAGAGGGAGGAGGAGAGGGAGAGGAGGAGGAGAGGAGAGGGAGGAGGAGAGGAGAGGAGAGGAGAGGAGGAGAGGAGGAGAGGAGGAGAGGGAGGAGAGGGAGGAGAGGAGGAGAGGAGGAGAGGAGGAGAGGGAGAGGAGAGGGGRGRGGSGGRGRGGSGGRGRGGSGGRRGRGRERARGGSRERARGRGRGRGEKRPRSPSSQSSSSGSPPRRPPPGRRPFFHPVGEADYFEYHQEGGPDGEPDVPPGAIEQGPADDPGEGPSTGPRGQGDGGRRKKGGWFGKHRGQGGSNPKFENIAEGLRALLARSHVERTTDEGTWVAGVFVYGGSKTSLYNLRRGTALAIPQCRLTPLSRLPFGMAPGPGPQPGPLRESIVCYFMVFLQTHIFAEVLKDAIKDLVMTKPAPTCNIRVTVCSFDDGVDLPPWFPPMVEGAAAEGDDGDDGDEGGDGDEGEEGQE

[21] = target: Lytic switch protein BZLF1 (Epstein-Barr virus (strain B95-8) (HHV-4) (Human herpesvirus 4), UniProt P03206); experiment: EBV ZTA inhibitors, dose response, counter-screen for EBNA-1 inhibitor project, biochemical, fluorescence polarization, Epstein-Barr virus, 1536-well (AID 2377); set-up: species or system human gammaherpesvirus 4;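 also: fluorescence polarization of Cy5-labelled ZRE DNA probe bound by purified Zta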
Lytic switch protein BZLF1, sequence (P03206 whole entry): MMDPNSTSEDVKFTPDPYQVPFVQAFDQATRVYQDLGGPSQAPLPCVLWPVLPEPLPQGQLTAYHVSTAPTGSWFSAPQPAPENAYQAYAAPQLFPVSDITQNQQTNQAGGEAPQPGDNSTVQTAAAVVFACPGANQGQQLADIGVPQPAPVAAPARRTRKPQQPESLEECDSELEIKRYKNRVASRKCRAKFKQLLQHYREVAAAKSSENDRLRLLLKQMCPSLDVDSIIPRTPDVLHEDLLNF

[22] = target: T8, DNA repair and recombination protein RAD54-like (Homo sapiens, UniProt Q92698); experiment: inhibitors of human RAD54 branch migration, confirmation, biochemical, fluorescence, cherry-picked samples, dose series (AID 651657); format: functional
T8 sequence (Q92698 whole entry): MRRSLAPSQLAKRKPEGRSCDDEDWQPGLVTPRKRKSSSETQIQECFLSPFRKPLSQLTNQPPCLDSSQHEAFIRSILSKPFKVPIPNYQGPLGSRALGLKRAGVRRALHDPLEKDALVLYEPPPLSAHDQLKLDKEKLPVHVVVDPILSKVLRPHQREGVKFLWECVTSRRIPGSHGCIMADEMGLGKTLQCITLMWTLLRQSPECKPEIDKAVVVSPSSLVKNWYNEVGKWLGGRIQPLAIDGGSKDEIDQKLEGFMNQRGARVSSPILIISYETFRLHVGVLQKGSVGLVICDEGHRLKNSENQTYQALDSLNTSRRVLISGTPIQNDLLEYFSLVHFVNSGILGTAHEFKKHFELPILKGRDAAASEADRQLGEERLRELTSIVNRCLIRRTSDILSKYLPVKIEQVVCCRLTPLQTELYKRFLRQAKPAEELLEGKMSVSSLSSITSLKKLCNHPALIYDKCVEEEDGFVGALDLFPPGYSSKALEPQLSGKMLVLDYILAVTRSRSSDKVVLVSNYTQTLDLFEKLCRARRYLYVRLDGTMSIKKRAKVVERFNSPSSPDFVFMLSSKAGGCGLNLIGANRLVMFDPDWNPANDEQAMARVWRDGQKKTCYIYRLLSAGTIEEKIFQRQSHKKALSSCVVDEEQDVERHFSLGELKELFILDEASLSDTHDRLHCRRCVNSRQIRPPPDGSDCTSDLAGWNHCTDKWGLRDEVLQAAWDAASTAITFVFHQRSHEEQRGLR

[23] = target: Luciferin 4-monooxygenase (Photinus pyralis, UniProt P08659); experiment: Counter Screen for Luciferase-based Assay Positives. [Related pubchem assays: 620, 618, 411 ]
Luciferin 4-monooxygenase, sequence (P08659 whole entry): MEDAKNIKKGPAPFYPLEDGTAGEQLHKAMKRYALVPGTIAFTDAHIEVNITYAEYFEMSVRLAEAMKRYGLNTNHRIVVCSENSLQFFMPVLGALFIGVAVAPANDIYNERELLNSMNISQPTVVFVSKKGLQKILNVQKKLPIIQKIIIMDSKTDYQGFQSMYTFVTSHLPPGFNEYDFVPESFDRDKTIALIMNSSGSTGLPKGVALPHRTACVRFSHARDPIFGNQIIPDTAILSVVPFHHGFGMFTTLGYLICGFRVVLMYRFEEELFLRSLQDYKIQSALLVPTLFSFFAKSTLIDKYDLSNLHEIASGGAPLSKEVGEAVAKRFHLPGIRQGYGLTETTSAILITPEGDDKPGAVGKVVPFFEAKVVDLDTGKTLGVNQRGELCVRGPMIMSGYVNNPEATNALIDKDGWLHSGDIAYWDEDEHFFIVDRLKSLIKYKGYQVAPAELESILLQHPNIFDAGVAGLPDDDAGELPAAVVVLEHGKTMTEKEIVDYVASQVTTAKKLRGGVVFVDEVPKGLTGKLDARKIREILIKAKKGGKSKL

Estrogen receptor = target: T9, Estrogen receptor (Homo sapiens, UniProt P03372); experiment: ERα–SRC-3 coactivator interaction inhibitors, confirmation, orthogonal assay, biochemical, ELISA, streptavidin-HRP readout (AID 1079)
T9 sequence (P03372 whole entry): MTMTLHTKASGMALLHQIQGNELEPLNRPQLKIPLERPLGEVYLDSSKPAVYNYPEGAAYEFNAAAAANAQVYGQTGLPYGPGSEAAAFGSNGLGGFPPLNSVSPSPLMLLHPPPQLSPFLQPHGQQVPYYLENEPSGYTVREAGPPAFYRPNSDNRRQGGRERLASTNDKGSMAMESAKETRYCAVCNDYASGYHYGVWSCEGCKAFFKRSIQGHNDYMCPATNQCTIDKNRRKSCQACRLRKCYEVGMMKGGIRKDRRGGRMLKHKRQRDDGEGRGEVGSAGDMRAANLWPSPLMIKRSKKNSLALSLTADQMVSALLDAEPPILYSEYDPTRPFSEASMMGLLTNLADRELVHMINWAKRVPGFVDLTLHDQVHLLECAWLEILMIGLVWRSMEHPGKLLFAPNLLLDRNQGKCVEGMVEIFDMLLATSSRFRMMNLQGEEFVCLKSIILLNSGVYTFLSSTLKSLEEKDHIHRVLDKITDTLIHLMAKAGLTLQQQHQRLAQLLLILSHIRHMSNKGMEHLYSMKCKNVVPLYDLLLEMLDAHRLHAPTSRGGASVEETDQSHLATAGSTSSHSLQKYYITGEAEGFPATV

[24] = target: Sphingosine 1-phosphate receptor 1 (Homo sapiens, UniProt P21453); experiment: Dose Response Cell-Based Assay for Agonists of the Sphingosine 1-Phosphate Receptor 1 (S1P1): Purchased Analogues. [Related pubchem assays: 1192, 373, 439 ]; format: functional
Sphingosine 1-phosphate receptor 1, sequence (P21453 whole entry): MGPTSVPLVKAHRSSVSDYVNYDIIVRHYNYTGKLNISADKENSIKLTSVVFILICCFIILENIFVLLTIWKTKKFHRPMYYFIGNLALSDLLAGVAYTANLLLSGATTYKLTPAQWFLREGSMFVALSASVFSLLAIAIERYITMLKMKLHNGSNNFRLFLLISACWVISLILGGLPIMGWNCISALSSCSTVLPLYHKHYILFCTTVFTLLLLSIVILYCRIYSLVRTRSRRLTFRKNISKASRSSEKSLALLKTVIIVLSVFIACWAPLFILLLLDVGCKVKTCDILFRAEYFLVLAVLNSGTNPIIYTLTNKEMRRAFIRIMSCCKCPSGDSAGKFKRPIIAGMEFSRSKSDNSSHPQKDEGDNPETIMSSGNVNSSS

[25] = target: Sphingosine 1-phosphate receptor 3 (Homo sapiens, UniProt Q99500); experiment: Dose Response Cell-Based Assay for Agonists of the Sphingosine 1-Phosphate Receptor 3 (S1P3): Purchased Analogues. [Related pubchem assays: 373, 439 ]; format: functional
Sphingosine 1-phosphate receptor 3, sequence (Q99500 whole entry): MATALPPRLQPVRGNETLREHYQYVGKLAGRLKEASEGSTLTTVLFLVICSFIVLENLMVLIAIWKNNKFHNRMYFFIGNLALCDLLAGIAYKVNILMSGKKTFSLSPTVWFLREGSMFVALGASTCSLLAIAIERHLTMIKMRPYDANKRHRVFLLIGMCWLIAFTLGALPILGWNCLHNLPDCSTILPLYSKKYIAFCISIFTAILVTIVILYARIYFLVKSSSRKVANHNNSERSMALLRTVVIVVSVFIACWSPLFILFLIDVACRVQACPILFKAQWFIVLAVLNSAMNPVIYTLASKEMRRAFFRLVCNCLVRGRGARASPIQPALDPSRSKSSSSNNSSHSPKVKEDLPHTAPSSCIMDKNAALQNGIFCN

[26] = target: Sphingosine 1-phosphate receptor 2 (Homo sapiens, UniProt O95136); experiment: Dose Response Cell-Based Assay for Agonists of the Sphingosine 1-Phosphate Receptor 2 (S1P2): Purchased Analogues. [Related pubchem assays: 1192, 373, 439 ]; format: functional
Sphingosine 1-phosphate receptor 2, sequence (O95136 whole entry): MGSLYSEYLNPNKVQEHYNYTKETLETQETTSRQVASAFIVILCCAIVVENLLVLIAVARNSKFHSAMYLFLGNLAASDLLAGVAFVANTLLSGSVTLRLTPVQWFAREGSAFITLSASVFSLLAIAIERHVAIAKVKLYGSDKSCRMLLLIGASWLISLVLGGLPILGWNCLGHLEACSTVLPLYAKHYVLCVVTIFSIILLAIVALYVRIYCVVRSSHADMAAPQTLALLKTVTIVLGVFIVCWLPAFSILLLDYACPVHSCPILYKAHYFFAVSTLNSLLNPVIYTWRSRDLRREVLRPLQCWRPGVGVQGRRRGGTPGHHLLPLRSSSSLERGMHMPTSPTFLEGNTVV

## O=C(N/N=C/c1ccc(O)cc1)Nc1cccc2nsnc12
[1]
  IC50: 2.51 µM (active)
[2]
  CC50: > 50 µM (active)
[3]
  EC50: 0.356 µM (active)
[4]
  IC50: 63.5 µM (active)
[5]
  EC50: 10.8 µM (active)

## Cc1ccc(S(=O)(=O)Nc2cccc3cccnc23)c([N+](=O)[O-])c1
[6]
  IC50: 5.55 µM (active)
Vero [7]
  CC50: 5.79 µM (active)
[8]
  EC50: > 120 µM (not active)
[9]
  IC50: > 32 µM (inactive)
[10]
  EC50: > 32 µM (inactive)
Vero [11]
  CC50: 7.85 µM (active)
[12]
  CC50: 5.64 µM (active)
Streptokinase A
  EC50: > 150 µM (not active)
Beta-galactosidase [13]
  EC50: > 40 µM (inactive)
Streptococcus
  EC50: 17.4 µM (active)
[14]
  IC50: 8.21 µM (active)
Vero [15]
  IC50: 18.4 µM (active)
Mu-type opioid receptor
  EC50: > 32 µM (inactive)
[16]
  IC50: > 32 µM
Beta-galactosidase [17]
  EC50: > 31.5 µM (inactive)
[18]
  EC50: 0.707 µM (active)

## COc1ccc2oc(C(=O)Nc3nccs3)c(C)c2c1
[19]
  EC50: > 67.5 µM (inactive)
[20]
  IC50: 21 µM (not active)
[21]
  IC50: > 111 µM (not active)

## COc1ccc2nc(-c3ccc(N)cc3)[nH]c2c1
[22]
  AC50: 35.1 µM (active)
[23]
  EC50: 0.38 µM (active)

## COC(=O)c1ccc2c(=O)n(CCCC(=O)N3CCN(c4cccc(Cl)c4)CC3)c(=S)[nH]c2c1
Estrogen receptor
  IC50: 18.7 µM (not active)

## Cc1ccc(-c2cc(C(=O)NC3CCCCC3)no2)cc1
[24]
  EC50: 0.194 µM (active)
[25]
  EC50: > 50 µM (not active)
[26]
  EC50: > 10 µM (not active)
